Measurements reported in paper PMC10330001 (Chemistry (Weinheim an der Bergstrasse, Germany), 2023).
Read-outs that look alike come from different tables or passages of the source.

Key:
[1] = target: T1, SARS-CoV-2 Mpro (Severe acute respiratory syndrome coronavirus 2, UniProt P0DTD1); assay: biochemical; type: biochemical
[2] = target: SARS-CoV main protease (Severe acute respiratory syndrome coronavirus, UniProt P0C6X7); assay: biochemical
[3] = target: MERS-CoV main protease (Middle East respiratory syndrome-related coronavirus, UniProt K9N7C7); assay: biochemical
Sequence of MERS-CoV main protease (K9N7C7 3248-3553 limits assumed): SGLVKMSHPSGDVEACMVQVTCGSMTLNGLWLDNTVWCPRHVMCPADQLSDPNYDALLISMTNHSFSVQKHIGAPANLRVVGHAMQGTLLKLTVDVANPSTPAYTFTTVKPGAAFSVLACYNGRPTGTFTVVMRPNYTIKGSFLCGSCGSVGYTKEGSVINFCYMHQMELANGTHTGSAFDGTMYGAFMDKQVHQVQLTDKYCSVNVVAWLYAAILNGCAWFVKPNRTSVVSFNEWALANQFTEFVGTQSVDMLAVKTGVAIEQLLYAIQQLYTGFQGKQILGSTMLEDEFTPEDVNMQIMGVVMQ

[4] = target: T2, HCoV-OC43 main protease (Human coronavirus OC43, UniProt P0C6X6); assay: biochemical
T2 sequence (P0C6X6 3247-3549 limits assumed): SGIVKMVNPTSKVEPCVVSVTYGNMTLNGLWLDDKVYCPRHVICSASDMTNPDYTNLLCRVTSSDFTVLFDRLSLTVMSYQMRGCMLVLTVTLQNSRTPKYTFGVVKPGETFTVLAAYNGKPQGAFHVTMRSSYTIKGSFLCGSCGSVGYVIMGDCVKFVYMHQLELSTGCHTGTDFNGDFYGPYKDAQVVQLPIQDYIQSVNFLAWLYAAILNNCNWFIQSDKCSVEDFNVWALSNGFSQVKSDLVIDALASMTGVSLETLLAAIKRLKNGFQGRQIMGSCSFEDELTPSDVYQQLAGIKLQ

[5] = target: T3, HCoV-HKU1 main protease (Human coronavirus HKU1, UniProt P0C6X2); assay: biochemical
T3 sequence (P0C6X2 3335-3637 limits assumed): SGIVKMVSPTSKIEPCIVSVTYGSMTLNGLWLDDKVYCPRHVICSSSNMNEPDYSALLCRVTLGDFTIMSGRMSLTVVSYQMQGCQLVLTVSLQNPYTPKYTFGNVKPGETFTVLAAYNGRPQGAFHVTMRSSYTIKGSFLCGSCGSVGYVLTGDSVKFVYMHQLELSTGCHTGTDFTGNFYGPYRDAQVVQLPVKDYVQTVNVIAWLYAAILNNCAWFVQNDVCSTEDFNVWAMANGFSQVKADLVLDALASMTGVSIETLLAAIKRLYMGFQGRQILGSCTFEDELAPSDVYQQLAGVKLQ

[6] = target: HCoV-229E main protease (Human coronavirus 229E, UniProt P0C6X1); assay: biochemical
Sequence of HCoV-229E main protease (P0C6X1 2966-3267): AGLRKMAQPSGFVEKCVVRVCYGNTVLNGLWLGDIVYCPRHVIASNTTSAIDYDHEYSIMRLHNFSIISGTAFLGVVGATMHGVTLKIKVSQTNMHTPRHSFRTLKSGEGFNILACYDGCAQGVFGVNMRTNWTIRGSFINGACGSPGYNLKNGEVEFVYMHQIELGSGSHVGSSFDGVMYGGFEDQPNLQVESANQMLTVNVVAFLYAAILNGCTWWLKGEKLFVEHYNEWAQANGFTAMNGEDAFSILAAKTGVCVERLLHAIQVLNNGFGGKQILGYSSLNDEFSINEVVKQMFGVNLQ

[7] = target: HCoV-NL63 main protease (Human coronavirus NL63, UniProt P0C6X5); assay: biochemical
Sequence of HCoV-NL63 main protease (P0C6X5 2940-3242 limits assumed): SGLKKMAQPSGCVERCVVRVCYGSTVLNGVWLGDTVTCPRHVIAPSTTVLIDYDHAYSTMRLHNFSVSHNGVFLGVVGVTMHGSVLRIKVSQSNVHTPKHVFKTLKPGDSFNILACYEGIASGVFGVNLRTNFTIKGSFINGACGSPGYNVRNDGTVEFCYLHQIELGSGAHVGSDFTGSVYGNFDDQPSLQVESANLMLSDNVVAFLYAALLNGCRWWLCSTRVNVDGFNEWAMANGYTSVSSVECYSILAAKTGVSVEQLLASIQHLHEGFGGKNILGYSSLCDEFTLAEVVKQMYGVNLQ

[8] = target: T1, SARS-CoV-2 Mpro; assay: cell-based
[9] = system: SARS-CoV-2 (USA-WA1/2020); assay: microbe, parasite or virus in culture; type: cell-based
[10] = system: SARS-CoV-2 (USA-WA1/2020); type: cell-based
[11] = system: SARS-CoV-2 (USA-WA1/2020); details: read-out: antiviral EC50; comparison value for the Caco2-hACE2 result; ref 9b; cited from earlier work

Structure (SMILES): O=C[C@H](C[C@@H]1CCNC1=O)NC(=O)[C@H](CC1CCCCC1)N1C[C@@H](NC(=O)OCc2ccccc2)CCC1=O [M-1-4, Benzyl ((S)-1-((S)-3-cyclohexyl-1-oxo-1-(((S)-1-oxo-3-((S)-2-oxopyrrolidin-3-yl)propan-2-yl)amino)propan-2-yl)-6-oxopiperidin-3-yl)carbamate]
- IC50 [1]: 950 ± 40 nM
- IC50 [2]: 730 ± 100 nM
- IC50 [3]: > 20000 nM
- IC50 [4]: 3670 ± 630 nM
- IC50 [5]: 1210 ± 200 nM
- IC50 [6]: 610 ± 90 nM
- IC50 [7]: 9580 ± 1790 nM
- EC50 [8]: 18000 nM
- EC50 ([9]; Severe acute respiratory syndrome coronavirus 2, read-out: antiviral EC50): 19000 nM

Structure (SMILES): CC(C)C[C@@H](C(=O)N[C@H](C=O)C[C@@H]1CCNC1=O)N1C[C@@H](NC(=O)OCc2ccccc2)CCC1=O [M-1-3, Benzyl ((S)-1-((S)-4-methyl-1-oxo-1-(((S)-1-oxo-3-((S)-2-oxopyrrolidin-3-yl)propan-2-yl)amino)pentan-2-yl)-6-oxopiperidin-3-yl)carbamate]
- IC50 [1]: 80 ± 10 nM
- IC50 [2]: 160 ± 10 nM
- IC50 [3]: 410 ± 50 nM
- IC50 [4]: 710 ± 20 nM
- IC50 [5]: 33 ± 10 nM
- IC50 [6]: 62 ± 10 nM
- IC50 [7]: 890 ± 10 nM
- EC50 [8]: > 60000 nM
- antiviral activity [9]: not active
- antiviral activity [10]: not active

Structure (SMILES): O=C[C@H](C[C@@H]1CCNC1=O)NC(=O)[C@H](Cc1cccc(F)c1)N1C[C@@H](NC(=O)OCc2ccccc2)CCC1=O [M-1-5, Benzyl ((S)-1-((S)-3-(3-fluorophenyl)-1-oxo-1-(((S)-1-oxo-3-((S)-2-oxopyrrolidin-3-yl)propan-2-yl)amino)propan-2-yl)-6-oxopiperidin-3-yl)carbamate]
- EC50 [8]: 49600 nM

Structure (SMILES): O=C(N[C@H]1CCC(=O)N([C@@H](CC2CC2)C(=O)N[C@@H](C[C@@H]2CCNC2=O)C(=O)C(=O)NC2CC2)C1)OCc1ccccc1 [M-2-8, Benzyl ((S)-1-((S)-3-cyclopropyl-1-(((S)-4-(cyclopropylamino)-3,4-dioxo-1-((S)-2-oxopyrrolidin-3-yl)butan-2-yl)amino)-1-oxopropan-2-yl)-6-oxopiperidin-3-yl)carbamate]
- IC50 [1]: 2140 ± 90 nM
- IC50 [2]: 3880 ± 670 nM
- IC50 [3]: > 20000 nM
- IC50 [4]: 2600 ± 450 nM
- IC50 [5]: 2230 ± 460 nM
- IC50 [6]: 5670 ± 490 nM
- IC50 [7]: 10800 ± 2210 nM

Structure (SMILES): O=C(N[C@H]1CCC(=O)N([C@@H](CC2CCCCC2)C(=O)N[C@@H](C[C@@H]2CCNC2=O)C(=O)C(=O)NC2CC2)C1)OCc1ccccc1 [M-2-6, Benzyl ((S)-1-((S)-3-cyclohexyl-1-(((S)-4-(cyclopropylamino)-3,4-dioxo-1-((S)-2-oxopyrrolidin-3-yl)butan-2-yl)amino)-1-oxopropan-2-yl)-6-oxopiperidin-3-yl) carbamate]
- IC50 ([1]; read-out: SARS-CoV-2 IC50): 4430 nM

Structure (SMILES): O=C(N[C@H]1CCC(=O)N([C@@H](Cc2cccc(F)c2)C(=O)N[C@@H](C[C@@H]2CCNC2=O)C(=O)C(=O)NC2CC2)C1)OCc1ccccc1 [M-2-7, Benzyl ((S)-1-((S)-1-(((S)-4-(cyclopropylamino)-3,4-dioxo-1-((S)-2-oxopyrrolidin-3-yl)butan-2-yl)amino)-3-(3-fluorophenyl)-1-oxopropan-2-yl)-6-oxopiperidin-3-yl) carbamate]
- IC50 ([1]; read-out: SARS-CoV-2 IC50): 3990 nM

Structure (SMILES): CC(C)C[C@@H](C(=O)N[C@H](C=O)C[C@@H]1CCNC1=O)N1C[C@@H](NC(=O)OCc2cc(F)cc(F)c2)CCC1=O [M-1-7, 3,5-difluorobenzyl ((S)-1-((S)-4-methyl-1-oxo-1-(((S)-1-oxo-3-((S)-2-oxopyrrolidin-3-yl)propan-2-yl)amino)pentan-2-yl)-6-oxopiperidin-3-yl)carbamate]
- IC50 [1]: 190 nM
- EC50 [8]: 27300 nM

Structure (SMILES): O=C[C@H](C[C@@H]1CCNC1=O)NC(=O)[C@H](CC1CC1)N1C[C@@H](NC(=O)OCc2ccccc2)CCC1=O [M-1-6, Benzyl ((S)-1-((S)-3-cyclopropyl-1-oxo-1-(((S)-1-oxo-3-((S)-2-oxopyrrolidin-3-yl)propan-2-yl)amino)propan-2-yl)-6-oxopiperidin-3-yl)carbamate]
- IC50 [1]: 80 ± 10 nM
- IC50 [2]: 250 ± 20 nM
- IC50 [3]: 850 ± 210 nM
- IC50 [4]: 180 ± 10 nM
- IC50 [5]: 120 ± 20 nM
- IC50 [6]: 180 ± 20 nM
- IC50 [7]: 480 ± 60 nM
- EC50 [8]: > 60000 nM

Structure (SMILES): CC(C)C[C@@H](C(=O)N[C@H](C=O)C[C@@H]1CCNC1=O)N1C[C@@H](NC(=O)OCc2ccccc2)CC1=O [M-1-1, Benzyl ((S)-1-((S)-4-methyl-1-oxo-1-(((S)-1-oxo-3-((S)-2-oxopyrrolidin-3-yl)propan-2-yl)amino)pentan-2-yl)-5-oxopyrrolidin-3-yl) carbamate]
- IC50 ([1]; read-out: SARS-CoV-2 IC50): 510 nM

Structure (SMILES): CC(C)C[C@H](NC(=O)OCc1ccccc1)C(=O)N[C@@H](CC1CCNC1=O)C(O)S(=O)(=O)O (stereo partly drawn) [GC376, reference compound]
- IC50 ([5]; read-out: HKU1 IC50): 12 ± 30 nM
- IC50 ([7]; read-out: HCoV-NL63 IC50): 120 ± 20 nM
- EC50 [11]: 2900 nM

Structure (SMILES): CC(C)C[C@@H](C(=O)N[C@@H](C[C@@H]1CCNC1=O)C(=O)C(=O)NC1CC1)N1C[C@@H](NC(=O)OCc2ccccc2)CCC1=O [M-2-5, Benzyl ((S)-1-((S)-1-(((S)-4-(cyclopropylamino)-3,4-dioxo-1-((S)-2-oxopyrrolidin-3-yl)butan-2-yl)amino)-4-methyl-1-oxopentan-2-yl)-6-oxopiperidin-3-yl) carbamate]
- IC50 ([1]; read-out: SARS-CoV-2 IC50): 3580 nM

Structure (SMILES): CC(C)C[C@@H](C(=O)N[C@@H](C[C@@H]1CCNC1=O)C(=O)C(=O)NC1CC1)N1C[C@@H](NC(=O)OCc2ccccc2)CC1=O [M-2-3, Benzyl ((S)-1-((S)-1-(((S)-4-(cyclopropylamino)-3,4-dioxo-1-((S)-2-oxopyrrolidin-3-yl)butan-2-yl)amino)-4-methyl-1-oxopentan-2-yl)-5-oxopyrrolidin-3-yl)carbamate]
- IC50 [1]: 1310 ± 100 nM
- IC50 [2]: 2260 ± 390 nM
- IC50 [3]: 8020 ± 2070 nM
- IC50 [4]: 120 ± 10 nM
- IC50 [5]: 390 ± 30 nM
- IC50 [6]: 690 ± 80 nM
- IC50 [7]: 830 ± 100 nM
